Data on seven compounds can be found in patent publication US9029389B2 (Institut Pasteur Korea, priority 2011, dated 2015).

Data set [1] deals with M. tuberculosis H37Rv. The data set is described as follows: Acute TB mouse model of infection, bacterial load in lungs. It is filed as in vivo, Mycobacterium tuberculosis. To be noted: for Log10CFU: 4 weeks of treatment.
In data set [2] the target is T1, Human 5-lipoxygenase (Homo sapiens, UniProt P09917).
T1 construct: purchased Cayman 60402; host or cells: insect cells
T1 sequence (P09917 1-674): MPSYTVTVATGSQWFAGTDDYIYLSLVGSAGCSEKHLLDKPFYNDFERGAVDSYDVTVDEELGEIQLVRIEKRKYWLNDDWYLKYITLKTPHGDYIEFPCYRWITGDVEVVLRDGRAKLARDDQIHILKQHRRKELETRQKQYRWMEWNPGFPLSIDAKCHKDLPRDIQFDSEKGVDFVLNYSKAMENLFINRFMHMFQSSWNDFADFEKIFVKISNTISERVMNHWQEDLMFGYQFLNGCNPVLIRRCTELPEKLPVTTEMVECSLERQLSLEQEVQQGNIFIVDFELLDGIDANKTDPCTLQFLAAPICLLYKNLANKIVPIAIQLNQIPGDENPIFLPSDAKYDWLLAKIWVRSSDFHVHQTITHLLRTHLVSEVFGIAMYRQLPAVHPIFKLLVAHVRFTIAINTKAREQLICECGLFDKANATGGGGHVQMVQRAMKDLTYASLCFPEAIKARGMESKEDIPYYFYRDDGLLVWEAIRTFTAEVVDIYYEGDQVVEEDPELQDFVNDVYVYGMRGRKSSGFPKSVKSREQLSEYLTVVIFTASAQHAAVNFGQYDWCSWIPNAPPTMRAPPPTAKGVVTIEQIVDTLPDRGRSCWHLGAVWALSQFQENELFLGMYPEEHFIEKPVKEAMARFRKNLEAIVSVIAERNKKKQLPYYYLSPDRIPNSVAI
Briefly: Activity of compounds against 5-LO enzyme (LTB4 measurement and/or fluorescence method). The data set is classed as biochemical. The note with it: for inhibition at 10 µM: 5-LO, single concentration of 10 uM in duplicate; for IC50: 6 or 11 point dose response in duplicate. The gist of the method: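 Insect-cell human 5-LO preincubated 15 min at RT with compound (pH 7.4, 2 mM CaCl2, 0.1 mM ATP, 1% DMSO), then 3 uM arachidonic acid for 5 min at 37 °C; LTB4 quantified by EIA and/or LC/MS/MS. Alternatively, fluorescence of 5-HpETE via H2DCFDA, 100 uM ATP, 3 uM arachidonic acid, 5 min, RT; single 10 uM screen then 6- or 11-point IC50.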

For data set [3], the system named is production of LTB4 in human PBMC (peripheral blood mononuclear cells). The data set is described as follows: Production of LTB4 in PBMC (LTB4 secretion assay). It is filed as cell-based. The note with it: 12 point dose response in duplicate. On the procedure:
Frozen human PBMC (peripheral blood mononuclear cells, AllCells, Cat#[…]) was diluted 50 times with fresh culture media (RPMI 1640 supplemented with 10% FBS, 2 mM L-alanyl-L-glutamine). Cells were harvested by centrifugation and resuspended in fresh culture media to a concentration of 5×10^6 cells per milliliter. 140 ul of cell suspension was then liquated to each well (96-well plate). After incubation at 37° C. for 1 hr under 5% CO2, 10 ul of serially diluted compounds (in 100% DMSO) and 10 ul of arachidonic acid to a final concentration of 30 uM were added and further incubated for 1 hr at 37° C. for 1 hr under 5% CO2. Then, inducers, such as A23187 (Ionophor), sodium arsenite, sodium chloride and/or Anti-DNP IgE, were added in a volume of 40 ul and cells were incubated at 37° C. for […]. Culture supernatant was harvested by centrifugation and LTB4 levels were quantified using LTB4 EIA kit (Cayman, Cat#520111). Six of the 378 compounds tested against the 5-LO enzyme in vitro were also selected to be tested for their activity in a human cellular assay. Compounds were tested in a 12 point dose response in duplicate.

The subject of data set [4] is inflammatory lesions in the lungs. Briefly: Acute TB mouse model of infection, histopathological analysis of lung tissue. It is filed as in vivo, BalbC mice. The note with it: TB-infected mice, Hematoxylin and Eosin staining, compared with even INH treatment (FIG. 1). On the procedure:
The effect of compound 127 on TB-infected mice was compared to that of the reference compound Isoniazid (INH). 8-week old female BalbC mice were infected with 6×10^5 M. tuberculosis H37Rv via intranasal instillation. Mice were sacrificed at day 1 to control the number of CFU in the lungs. In the acute model of infection, mice were treated for 4 weeks, starting at day 1. Compounds were freshly dissolved in a 0.5% methylcellulose solution and administered by oral gavage 5 times/week. Bacterial load was assessed in lungs after homogenizing the organs in 1×PBS. Serial dilutions of organ homogenates were spread on Middlebrook 7H11 plates and CFU were determined after 3 weeks incubation at 37° C. under 5% CO2. Histopathological analysis of lung tissue was performed by Hematoxylin and Eosin staining.

SMILES strings stand for the structures.

`NNC(=O)c1ccncc1` [INH, Isoniazid, reference compound]: the Log10CFU in data set [1] (25 mg/kg oral gavage 5 times/week) is reported as 5.0 Log10CFU.
What is called inhibition is the change of the read-out against control, counted positive when it falls. Usually IC50 stands for the concentration needed to halve the response being measured. A lower IC50 goes with higher potency. By EC50 is commonly meant the concentration needed to bring the measured effect to its halfway point. Low values mean higher potency in that assay, high ones lower potency in that assay. As a reminder, the melting point is the temperature, or range, at which the solid turns liquid. For the compound `CCc1nc2cc(Cl)ccn2c1C(=O)NCc1ccc(N2CCN(c3ccc(F)cc3)CC2)cc1` [compound 127, 7-Chloro-2-ethyl-N-(4-(4-(4-fluorophenyl)piperazin-1-yl)benzyl)imidazo[1,2-a]pyridine-3-carboxamide], the melting point lay within 212 to 213 °C. In data set [2], this compound displayed an inhibition at 10 µM above 69% and an IC50 above 20000 nM. For the same compound, the EC50 in data set [3] is below 1000 nM. For the same compound, in data set [1] (50 mg/kg oral gavage 5 times/week), the Log10CFU was 6.47 Log10CFU. For the same compound, in data set [1] (50 mg/kg, after 4 weeks of treatment), the “reduction of CFU compared to untreated mice” value is reported as around 1 log CFU. Also, the “number and size of inflammatory lesions in the lungs” value in data set [4] was “significant reduction in the number and size of inflammatory lesions in the lungs”.
For the compound `CCc1nc2cc(Cl)ccn2c1C(=O)NCc1ccc2oc(-c3ccc(OC(F)(F)F)cc3)nc2c1` [compound 187, 7-Chloro-2-ethyl-N-((2-(4-(trifluoromethoxy)phenyl)benzo[d]oxazol-5-yl)methyl)imidazo[1,2-a]pyridine-3-carboxamide], the inhibition at 10 µM in data set [2] is below 40%. The compound further came in with an EC50 in data set [3] of 1000 to 20000 nM.
With `CCc1nc2ccc(Cl)cn2c1CNc1ccc(N2CCN(c3ccc(F)cc3)CC2)cc1` [compound 311, N-((6-Chloro-2-ethylimidazo[1,2-a]pyridin-3-yl)methyl)-4-(4-(4-fluorophenyl)piperazin-1-yl)aniline], the melting point lay within 191 to 192 °C. In data set [2], this compound came in with an inhibition at 10 µM above 69% and an IC50 below 1000 nM. Further, the concentration giving a half-maximal response (EC50) in data set [3] lay within 1000 to 20000 nM.
In data set [2], `CCc1nc2cc([N+](=O)[O-])ccn2c1C(=O)NCc1ccc(N2CCC(Oc3ccc(OC(F)(F)F)cc3)CC2)cc1` [compound 312, 2-Ethyl-7-nitro-N-(4-(4-(4-(trifluoromethoxy)phenoxy)piperidin-1-yl)benzyl)imidazo[1,2-a]pyridine-3-carboxamide] showed an inhibition at 10 µM above 69% and an IC50 below 1000 nM. The compound further had a concentration for a half-maximal effect (EC50) in data set [3] below 1000 nM.
On to `CCc1nc2ccc(Cl)cn2c1C(=O)N1CCC(OCc2ccc(OC(F)(F)F)cc2)CC1` [compound 313, (6-Chloro-2-ethylimidazo[1,2-a]pyridin-3-yl)(4-(4-(trifluoromethoxy)benzyloxy)piperidin-1-yl)methanone], for which, in data set [2], the inhibition at 10 µM was above 69% and the IC50 fell in the range of 1000 to 20000 nM. The compound also registered an EC50 in data set [3] below 1000 nM.
As to `CCc1nc2ccc(Cl)cn2c1C(=O)N(C)Cc1ccc(N2CCN(c3ccc(F)cc3)CC2)cc1` [compound 314, 6-Chloro-2-ethyl-N-(4-(4-(4-fluorophenyl)piperazin-1-yl)benzyl)-N-methylimidazo[1,2-a]pyridine-3-carboxamide], the melting point was in the range of 148 to 149 °C. In data set [2], this compound gave an inhibition at 10 µM above 69% and an IC50 of 1000 to 20000 nM. For the same compound, the concentration giving a half-maximal response (EC50) in data set [3] is below 1000 nM.
